Source: patent US20210379079A1, “COMPOSITIONS COMPRISING CD20 INHIBITORS AND BISFLUOROALKYL-1,4-BENZODIAZEPINONE COMPOUNDS AND METHODS OF USE THEREOF” (Ayala Pharmaceuticals Inc., priority 2018, published 2021)

Key:
Test in all cases: Cell surface CD20 levels by flow cytometry (FACS) after GSI treatment
Type in all cases: cell-based
[1] = tested on: Rec-1 (MCL); details: separate experiment, 0.001-10 μM, 7 days at 37° C., FIG. 2
Description: (§1) In a separate experiment, cells from lymphoma cell lines SUDHL-4 (DLBCL); Rec-1 (MCL); and SP49 (MCL) were seeded at 1×10^4 cells/well in a total volume of 250 μl into a 96-well plate. The cells were cultured in RPMI supplemented with 10% FCS.
(§2) Compound 1 or Compound 22 were added to the cell cultures at concentrations of 10, 1, 0.5, 0.1, 0.01, 0.001 μM. Following 7 days of incubation at 37° C., the cells were collected and stained with anti CD20 antibody and cell surface CD20 levels were immediately analyzed by flow cytometry (FACS analysis).

[2] = tested on: SUDHL-4 cells; details: SUDHL-4 (DLBCL); for CD20 levels: separate experiment, 0.001-10 μM, 7 days at 37° C., FIG. 2
Description: (§3) The effect of γ-secretase inhibitors (GSIs) on levels of CD20 in lymphoma cell lines was examined (FIG. 1). Cells from five different lymphoma cell lines (SP49 (mantle cell lymphoma (MCL) with Notch4 GOF); Toledo (Diffuse large B-cell lymphoma (DLBCL)); RC (Double Hit DLBCL-MYC, BCL2); SUDHL-4 (DLBCL); and SUDHL-6 (DLBCL)) were treated for 7 days with 0, 1 nM, 10 nM, 100 nM, 500 nM, 1000 nM, and 10000 nM of the following GSIs: Compound 1 (FIG. 1A) or Compound 22 (FIG. 1B). Cell surface CD20 levels were observed by flow cytometry (FACS analysis).
as §1, §2

[3] = tested on: SP49 cells; details: for cell surface CD20 levels: SP49 (MCL with Notch4 GOF), 7 days, 0-10000 nM, FIGS. 1A-1B
Description: as §3, §1, §2

| Compound | CD20 levels [1] | cell surface CD20 levels ([2]; 7 days, 0-10000 nM, FIG. 1A) | CD20 levels [2] | cell surface CD20 levels [3] | CD20 levels ([3]; separate experiment, SP49 (MCL), 0.001-10 μM, 7 days at 37° C., FIG. 2) |
| --- | --- | --- | --- | --- | --- |
| CN1C(=O)[C@@H](NC(=O)[C@H](CCC(F)(F)F)[C@H](CCC(F)(F)F)C(N)=O)N=C(c2ccccc2)c2ccccc21 [Compound 1, (2R,3S)-N-((3S)-1-methyl-2-oxo-5-phenyl-2,3-dihydro-1H-1,4-benzodiazepin-3-yl)-2,3-bis(3,3,3-trifluoropropyl)succinamide] | dose-dependent increase in CD20 levels | increased cell surface CD20 levels | dose-dependent increase in CD20 levels | increased cell surface CD20 levels | dose-dependent increase in CD20 levels |
| Cc1cccc2c1NC(=O)[C@@H](NC(=O)[C@H](CCC(F)(F)F)[C@H](CCC(F)(F)F)C(N)=O)N=C2c1cccc(F)c1 [Compound 22, (2R,3S)-N-((3S)-5-(3-fluorophenyl)-9-methyl-2-oxo-2,3-dihydro-1H-1,4-benzodiazepin-3-yl)-2,3-bis(3,3,3-trifluoropropyl)succinamide] | dose-dependent increase in CD20 levels |  | dose-dependent increase in CD20 levels | increased cell surface CD20 levels |  |
